Test results: publication PMC3222276 (ACS chemical biology, 2010)

Columns and labels:
[1] = target: cathepsin B (Homo sapiens, UniProt P07858); test: Inhibition of recombinant cathepsin B; settings: read-out: Cathepsin B IC50; enzyme 360nM, substrate 50μM, pH 6.25, 30min
[2] = target: cathepsin L (Homo sapiens, UniProt P07711); test: Inhibition of recombinant cathepsin L; settings: read-out: Cathepsin L IC50; enzyme 100nM, substrate 10μM, pH 6.25, 30min
Sequence of cathepsin L (P07711 114-333, species assumed): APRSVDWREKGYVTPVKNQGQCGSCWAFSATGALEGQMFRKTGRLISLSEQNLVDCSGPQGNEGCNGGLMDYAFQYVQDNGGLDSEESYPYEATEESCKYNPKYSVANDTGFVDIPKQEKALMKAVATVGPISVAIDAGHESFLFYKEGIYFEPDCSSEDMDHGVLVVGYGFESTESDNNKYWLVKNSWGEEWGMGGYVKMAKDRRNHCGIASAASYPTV

With JPM-OEt the IC50 [1] was 780 nM and the IC50 [2] was 2980 nM.
